# Experiments:
# Format in all cases: in vivo
# [1] = Urine glucose after oral ingestion of phlorizin, no food versus in milk; conditions: 1 gm oral; for urine glucose: 85 kg male
# [2] = Serum insulin after ingesting 100 g of carbohydrates, immunoassay; conditions: 1.5 g oral one hour prior to 100 g of carbohydrates
# Protocol: (§1) 1.5 g of phlorizin as a dry powder in a gelatin capsule was ingested one hour prior to ingesting 100 g of carbohydrates and compared to similar ingestion of carbohydrates without the prior consumption of the phlorizin. Glucose and insulin levels were measured just prior to and 30 and 60 minutes following carbohydrate ingestion and glucose levels were also measured 90 and 120 minutes after carbohydrate ingestion. Glucose levels were established by glucose oxidase reaction using whole blood and measuring the color generated with a hand-held spectrophotometer. Serum insulin was measured using commercially available immunoassay devices and methods.
# [3] = Body weight during oral phlorizin three times a day on an empty stomach; conditions: for Weight after 3 days of phlorizin: 1.5 grams oral three times a day, 90 minutes before eating
# Protocol: 1.5 grams phlorizin as a dry powder in a gelatin capsule was ingested orally three times a day, 90 minutes before eating on an empty stomach. Weight measured at the same time each day with a digital electronic scale. Normal dietary conditions were maintained during the time that the phlorizin was ingested.
# [4] = Whole blood glucose after ingesting 100 g of carbohydrates, glucose oxidase reaction
# Protocol: as §1
structure (smiles),measurement,setting,value
O=C(CCc1ccc(O)cc1)c1c(O)cc(O)cc1O[C@@H]1O[C@H](CO)[C@@H](O)[C@H](O)[C@H]1O [phlorizin],urine glucose,"[1]; in milk, 0 minutes after ingestion",no food: <50 mg/dl in milk: <50 mg/dl
same,urine glucose,"[1]; in milk, 90 minutes after ingestion",< 50 mg/dL
same,urine glucose,"[1]; in milk, 150 minutes after ingestion",no food: 50 mg/dl in milk: <50 mg/dl
same,urine glucose,"[1]; in milk, 210 minutes after ingestion",no food: <50 mg/dl in milk: <50 mg/dl
same,urine glucose,"[1]; no food (empty stomach), 0 minutes after ingestion",no food: <50 mg/dl in milk: <50 mg/dl
same,urine glucose,"[1]; no food (empty stomach), 90 minutes after ingestion",500 mg/dL
same,urine glucose,"[1]; no food (empty stomach), 150 minutes after ingestion",no food: 50 mg/dl in milk: <50 mg/dl
same,urine glucose,"[1]; no food (empty stomach), 210 minutes after ingestion",no food: <50 mg/dl in milk: <50 mg/dl
same,effectiveness as a glucose blocker (urine glucose),"[1]; no food versus in milk, conclusion in words",effective as a glucose blocker only if it is ingested without food on an empty stomach
same,INSULIN,[2]; 0 minutes (just prior to carbohydrate ingestion),5 microIU/ml
same,INSULIN,[2]; 30 minutes after carbohydrate ingestion,34 microIU/ml
same,INSULIN,[2]; 60 minutes after carbohydrate ingestion,28 microIU/ml
same,effect on body weight,"[3]; 1.5 grams oral three times a day for 3 days, conclusion in words",effective in reducing body weight
same,Weight after 3 days of phlorizin,"[3]; Experiment 1, pre-phlorizin weight 192.2 lbs.",189.4 lbs.
same,Weight after 3 days of phlorizin,"[3]; Experiment 2, pre-phlorizin weight 193.2 lbs.",185.4 lbs.
same,Weight after 3 days of phlorizin,"[3]; Experiment 3, pre-phlorizin weight 191.5 lbs.",186.8 lbs.
same,Weight after 3 days of phlorizin,"[3]; Experiment 4, pre-phlorizin weight 194.4 lbs.",189.0 lbs.
same,GLUCOSE,"[4]; 1.5 g oral one hour prior to 100 g of carbohydrates, 0 minutes (just prior to carbohydrate ingestion)",90 mg/dL
same,GLUCOSE,"[4]; 1.5 g oral one hour prior to 100 g of carbohydrates, 30 minutes after carbohydrate ingestion",146 mg/dL
same,GLUCOSE,"[4]; 1.5 g oral one hour prior to 100 g of carbohydrates, 60 minutes after carbohydrate ingestion",144 mg/dL
same,GLUCOSE,"[4]; 1.5 g oral one hour prior to 100 g of carbohydrates, 90 minutes after carbohydrate ingestion",108 mg/dL
same,GLUCOSE,"[4]; 1.5 g oral one hour prior to 100 g of carbohydrates, 120 minutes after carbohydrate ingestion",117 mg/dL
same,effect on postprandial rise in glucose and insulin levels,"[4]; 1.5 g oral one hour prior to 100 g of carbohydrates, conclusion in words",able to decrease the postpandrial rise in glucose and insulin levels
same,prevention of reactive hypoglycemia,"[4]; glucose levels at 90 and 120 minutes with and without phlorizin, conclusion in words",effective in preventing reactive hypoglycemia
